One test has as its target Bile salt export pump (Homo sapiens, UniProt O95342). Nature of the test: Inhibition of human BSEP overexpressed in Sf9 cell membrane vesicles assessed as uptake of [3H]-taurocholate in presence of ATP measured after 15 to 20 mins by membrane vesicle transport assay. It is filed as ADME, cell-based.
Test [1] has as its target ATP-binding cassette sub-family C member 2 (Homo sapiens, UniProt Q92887). Nature of the test: Inhibition of human MRP2 overexpressed in Sf9 cell membrane vesicles assessed as uptake of [3H]-estradiol-17beta-D-glucuronide in presence of ATP and GSH measured after 20 mins by membrane vesicle transport assay.
The target of test [2] is ATP-binding cassette sub-family C member 3 (Homo sapiens, UniProt O15438). Nature of the test: Inhibition of human MRP3 overexpressed in Sf9 insect cell membrane vesicles assessed as uptake of [3H]-estradiol-17beta-D-glucuronide in presence of ATP and GSH measured after 10 mins by membrane vesicle transport assay. Type of test: ADME, cell-based.
Chain of ATP-binding cassette sub-family C member 3 (O15438 whole entry): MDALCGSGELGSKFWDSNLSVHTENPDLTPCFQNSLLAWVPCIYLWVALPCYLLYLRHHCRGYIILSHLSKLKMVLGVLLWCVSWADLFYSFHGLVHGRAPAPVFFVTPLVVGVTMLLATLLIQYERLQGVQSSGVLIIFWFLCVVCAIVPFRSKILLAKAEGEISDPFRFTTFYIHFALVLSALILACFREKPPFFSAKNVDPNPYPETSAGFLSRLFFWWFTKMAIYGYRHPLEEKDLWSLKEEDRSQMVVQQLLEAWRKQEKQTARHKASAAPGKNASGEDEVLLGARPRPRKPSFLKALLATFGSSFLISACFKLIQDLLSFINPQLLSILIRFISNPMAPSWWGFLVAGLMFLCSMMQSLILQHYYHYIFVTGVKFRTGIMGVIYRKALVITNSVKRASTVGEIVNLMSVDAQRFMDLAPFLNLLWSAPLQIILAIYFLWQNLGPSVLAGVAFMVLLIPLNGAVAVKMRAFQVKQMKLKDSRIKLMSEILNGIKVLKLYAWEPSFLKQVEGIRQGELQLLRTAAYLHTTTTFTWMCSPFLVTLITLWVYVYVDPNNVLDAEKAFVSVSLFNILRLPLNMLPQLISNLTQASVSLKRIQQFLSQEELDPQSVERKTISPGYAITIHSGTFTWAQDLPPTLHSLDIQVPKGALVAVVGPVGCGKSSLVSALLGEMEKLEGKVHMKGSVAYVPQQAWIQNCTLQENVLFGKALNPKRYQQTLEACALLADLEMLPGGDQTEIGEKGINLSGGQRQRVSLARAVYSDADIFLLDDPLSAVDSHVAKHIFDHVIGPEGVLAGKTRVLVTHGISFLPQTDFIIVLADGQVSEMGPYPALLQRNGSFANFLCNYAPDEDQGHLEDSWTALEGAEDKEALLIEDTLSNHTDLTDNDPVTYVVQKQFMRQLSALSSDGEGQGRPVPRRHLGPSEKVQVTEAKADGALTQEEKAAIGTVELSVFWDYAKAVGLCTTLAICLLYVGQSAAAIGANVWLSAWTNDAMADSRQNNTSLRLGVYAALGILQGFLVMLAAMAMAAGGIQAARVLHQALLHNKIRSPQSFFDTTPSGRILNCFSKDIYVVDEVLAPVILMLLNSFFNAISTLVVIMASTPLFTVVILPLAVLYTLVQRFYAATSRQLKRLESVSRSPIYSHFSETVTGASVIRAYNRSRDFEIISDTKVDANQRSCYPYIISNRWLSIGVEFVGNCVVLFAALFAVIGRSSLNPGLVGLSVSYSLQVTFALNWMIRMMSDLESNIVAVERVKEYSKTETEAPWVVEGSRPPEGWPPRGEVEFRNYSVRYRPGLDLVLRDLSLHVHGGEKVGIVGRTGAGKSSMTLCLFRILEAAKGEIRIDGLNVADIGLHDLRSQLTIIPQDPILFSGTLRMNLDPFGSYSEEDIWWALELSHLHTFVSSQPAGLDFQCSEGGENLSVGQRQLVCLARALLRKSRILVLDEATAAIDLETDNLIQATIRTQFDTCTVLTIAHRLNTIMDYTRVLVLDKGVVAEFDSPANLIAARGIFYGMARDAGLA
The target of test [3] is T1, ATP-binding cassette sub-family C member 4 (Homo sapiens, UniProt O15439).
T1 sequence (O15439 whole entry): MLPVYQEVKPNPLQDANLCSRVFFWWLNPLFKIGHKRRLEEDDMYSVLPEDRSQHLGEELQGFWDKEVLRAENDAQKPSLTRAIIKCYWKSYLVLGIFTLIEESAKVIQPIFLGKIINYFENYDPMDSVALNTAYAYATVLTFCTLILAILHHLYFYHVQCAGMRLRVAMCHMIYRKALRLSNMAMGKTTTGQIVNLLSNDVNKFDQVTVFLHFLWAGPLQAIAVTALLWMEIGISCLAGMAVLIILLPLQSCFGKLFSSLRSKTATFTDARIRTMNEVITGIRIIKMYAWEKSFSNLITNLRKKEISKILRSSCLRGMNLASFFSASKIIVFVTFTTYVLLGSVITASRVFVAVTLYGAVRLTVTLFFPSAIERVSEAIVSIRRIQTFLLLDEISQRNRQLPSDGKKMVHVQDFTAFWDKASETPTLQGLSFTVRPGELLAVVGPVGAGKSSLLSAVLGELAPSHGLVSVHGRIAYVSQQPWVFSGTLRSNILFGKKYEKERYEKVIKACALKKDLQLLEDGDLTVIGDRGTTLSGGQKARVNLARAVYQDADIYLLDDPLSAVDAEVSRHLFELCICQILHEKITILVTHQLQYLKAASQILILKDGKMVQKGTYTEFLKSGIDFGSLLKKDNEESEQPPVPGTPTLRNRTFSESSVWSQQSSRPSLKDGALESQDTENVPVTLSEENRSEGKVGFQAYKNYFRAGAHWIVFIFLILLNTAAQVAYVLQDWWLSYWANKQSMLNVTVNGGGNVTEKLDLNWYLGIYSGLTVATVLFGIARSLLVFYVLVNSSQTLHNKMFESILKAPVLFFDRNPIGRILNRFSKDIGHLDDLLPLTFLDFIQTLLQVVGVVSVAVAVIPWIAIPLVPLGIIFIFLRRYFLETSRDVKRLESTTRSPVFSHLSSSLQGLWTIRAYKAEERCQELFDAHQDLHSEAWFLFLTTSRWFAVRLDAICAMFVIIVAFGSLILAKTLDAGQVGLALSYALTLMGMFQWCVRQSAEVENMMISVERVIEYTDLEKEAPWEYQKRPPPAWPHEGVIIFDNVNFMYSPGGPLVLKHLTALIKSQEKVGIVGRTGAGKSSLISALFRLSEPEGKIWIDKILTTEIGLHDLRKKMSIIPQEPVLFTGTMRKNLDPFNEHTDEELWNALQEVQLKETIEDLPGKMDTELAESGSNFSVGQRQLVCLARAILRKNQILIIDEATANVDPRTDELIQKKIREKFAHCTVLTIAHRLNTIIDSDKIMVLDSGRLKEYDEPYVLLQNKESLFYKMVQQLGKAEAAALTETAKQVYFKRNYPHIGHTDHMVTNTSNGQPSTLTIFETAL
Nature of the test: Inhibition of human MRP4 overexpressed in Sf9 cell membrane vesicles assessed as uptake of [3H]-estradiol-17beta-D-glucuronide in presence of ATP and GSH measured after 20 mins by membrane vesicle transport assay. It is filed as ADME, cell-based.

The results in this text go back to ChEMBL document CHEMBL4028801, “A multifactorial approach to hepatobiliary transporter assessment enables improved therapeutic compound development” (Toxicol Sci, 2013).

Structures can show the parent of a compound that is named as a salt.

Chain of ATP-binding cassette sub-family C member 2 (Q92887 whole entry): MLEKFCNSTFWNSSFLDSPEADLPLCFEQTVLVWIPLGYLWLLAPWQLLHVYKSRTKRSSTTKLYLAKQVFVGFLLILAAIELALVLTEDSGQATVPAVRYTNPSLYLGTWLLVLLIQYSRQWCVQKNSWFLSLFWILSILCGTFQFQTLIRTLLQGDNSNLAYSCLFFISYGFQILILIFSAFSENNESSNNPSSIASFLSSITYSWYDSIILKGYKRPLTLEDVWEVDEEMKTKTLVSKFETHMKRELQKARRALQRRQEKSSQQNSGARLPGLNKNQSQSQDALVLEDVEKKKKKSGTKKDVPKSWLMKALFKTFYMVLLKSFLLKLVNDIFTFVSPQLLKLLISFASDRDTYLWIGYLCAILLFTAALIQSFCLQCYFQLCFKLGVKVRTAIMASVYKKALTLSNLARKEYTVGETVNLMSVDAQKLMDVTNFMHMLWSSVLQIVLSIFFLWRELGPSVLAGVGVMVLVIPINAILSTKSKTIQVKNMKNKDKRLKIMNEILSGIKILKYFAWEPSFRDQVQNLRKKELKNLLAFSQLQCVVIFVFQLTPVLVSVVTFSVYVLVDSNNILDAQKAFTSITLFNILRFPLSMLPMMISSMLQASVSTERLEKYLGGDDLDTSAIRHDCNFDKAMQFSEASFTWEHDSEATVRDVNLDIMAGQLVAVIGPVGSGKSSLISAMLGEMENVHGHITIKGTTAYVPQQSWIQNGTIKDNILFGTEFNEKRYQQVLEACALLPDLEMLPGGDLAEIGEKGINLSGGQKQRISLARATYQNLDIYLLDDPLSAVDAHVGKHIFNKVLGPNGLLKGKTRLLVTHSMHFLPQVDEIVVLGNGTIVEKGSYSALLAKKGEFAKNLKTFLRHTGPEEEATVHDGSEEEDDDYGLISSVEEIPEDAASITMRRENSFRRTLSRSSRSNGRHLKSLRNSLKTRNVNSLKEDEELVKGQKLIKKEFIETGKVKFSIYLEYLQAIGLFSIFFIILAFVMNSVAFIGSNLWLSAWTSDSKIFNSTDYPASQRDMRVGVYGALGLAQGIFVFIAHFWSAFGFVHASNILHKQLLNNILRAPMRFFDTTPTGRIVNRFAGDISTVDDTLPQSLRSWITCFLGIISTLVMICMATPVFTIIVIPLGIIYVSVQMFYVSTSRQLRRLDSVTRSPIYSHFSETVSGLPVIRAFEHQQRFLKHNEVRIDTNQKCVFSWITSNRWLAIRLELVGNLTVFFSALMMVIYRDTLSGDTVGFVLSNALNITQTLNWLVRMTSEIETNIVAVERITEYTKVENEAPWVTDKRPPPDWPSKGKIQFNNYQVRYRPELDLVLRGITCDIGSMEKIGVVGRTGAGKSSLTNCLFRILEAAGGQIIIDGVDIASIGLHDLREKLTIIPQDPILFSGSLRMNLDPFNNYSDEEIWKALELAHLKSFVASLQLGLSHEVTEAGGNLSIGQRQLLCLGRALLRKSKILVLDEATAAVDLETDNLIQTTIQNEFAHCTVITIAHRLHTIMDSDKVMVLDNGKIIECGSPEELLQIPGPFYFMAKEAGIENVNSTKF
Chain of Bile salt export pump (O95342 whole entry): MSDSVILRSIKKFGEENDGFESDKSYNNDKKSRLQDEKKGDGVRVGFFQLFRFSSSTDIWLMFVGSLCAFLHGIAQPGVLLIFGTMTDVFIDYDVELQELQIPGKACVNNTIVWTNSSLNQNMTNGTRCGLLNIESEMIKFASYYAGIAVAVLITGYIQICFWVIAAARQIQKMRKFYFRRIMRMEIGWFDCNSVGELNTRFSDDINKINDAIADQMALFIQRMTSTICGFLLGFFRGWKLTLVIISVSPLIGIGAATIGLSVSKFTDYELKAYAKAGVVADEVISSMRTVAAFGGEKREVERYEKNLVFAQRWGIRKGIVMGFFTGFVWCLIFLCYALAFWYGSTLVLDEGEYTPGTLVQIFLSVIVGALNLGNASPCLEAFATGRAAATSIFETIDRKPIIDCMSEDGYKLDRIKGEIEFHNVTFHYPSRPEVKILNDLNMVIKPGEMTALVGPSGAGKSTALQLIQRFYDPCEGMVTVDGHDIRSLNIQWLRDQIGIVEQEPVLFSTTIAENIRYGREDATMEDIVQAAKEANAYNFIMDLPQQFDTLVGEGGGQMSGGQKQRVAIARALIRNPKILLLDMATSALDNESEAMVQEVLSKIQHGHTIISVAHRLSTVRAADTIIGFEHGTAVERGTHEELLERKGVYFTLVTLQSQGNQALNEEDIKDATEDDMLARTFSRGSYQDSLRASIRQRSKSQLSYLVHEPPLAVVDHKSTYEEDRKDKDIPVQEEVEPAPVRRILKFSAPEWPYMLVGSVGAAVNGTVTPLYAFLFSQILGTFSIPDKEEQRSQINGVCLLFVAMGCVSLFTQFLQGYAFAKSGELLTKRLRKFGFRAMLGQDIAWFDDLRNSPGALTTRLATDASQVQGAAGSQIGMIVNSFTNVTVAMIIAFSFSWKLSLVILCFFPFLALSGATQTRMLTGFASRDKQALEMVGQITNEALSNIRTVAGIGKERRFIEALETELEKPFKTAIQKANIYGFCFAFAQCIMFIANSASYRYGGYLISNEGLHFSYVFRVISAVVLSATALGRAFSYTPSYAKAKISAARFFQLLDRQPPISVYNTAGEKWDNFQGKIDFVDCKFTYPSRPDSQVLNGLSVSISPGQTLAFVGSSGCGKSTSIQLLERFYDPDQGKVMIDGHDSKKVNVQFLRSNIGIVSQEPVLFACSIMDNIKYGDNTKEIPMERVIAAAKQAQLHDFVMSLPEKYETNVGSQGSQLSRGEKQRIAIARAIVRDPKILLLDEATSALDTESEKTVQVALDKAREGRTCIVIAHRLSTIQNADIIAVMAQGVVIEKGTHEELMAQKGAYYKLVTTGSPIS

Take `COc1ccc2[nH]cc(CCNC(C)=O)c2c1` [MELATONIN]: the IC50 (on Bile salt export pump; in test [1]; in test [2]; in test [3]) was above 133 µM throughout.

With `CC1CCN(CCCC(=O)c2ccc(F)cc2)CC1` [MELPERONE], the IC50 (at Bile salt export pump; in test [1]; in test [2]; in test [3]) was above 133 µM each time.

`C[C@@H](O)[C@H]1C(=O)N2C(C(=O)O)=C(S[C@@H]3CN[C@H](C(=O)N(C)C)C3)[C@H](C)[C@H]12` [MEROPENEM]: the IC50 (at Bile salt export pump; in test [1]; in test [2]; in test [3]) was above 133 µM in each case.

Consider `O=S(=O)(O)CCS` [MESNA], for which the IC50 (at Bile salt export pump; in test [1]; in test [2]; in test [3]) was above 133 µM in each case.

Take `CN(Cc1cnc2nc(N)nc(N)c2n1)c1ccc(C(=O)N[C@@H](CCC(=O)O)C(=O)O)cc1` [METHOTREXATE]: the IC50 (at Bile salt export pump; in test [1]; in test [2]; in test [3]) was above 133 µM throughout.

On to `C[C@H]1C[C@@H]2[C@H]([C@@H](O)C[C@@]3(C)[C@H]2CC[C@]3(O)C(=O)CO)[C@@]2(C)C=CC(=O)C=C12` [METHYLPREDNISOLONE], for which the IC50 is above 133 µM on Bile salt export pump, above 133 µM in test [1], above 133 µM in test [2] and 41 µM in test [3].

As for `CCN(CC)CCNC(=O)c1cc(Cl)c(N)cc1OC` [METOCLOPRAMIDE], the IC50 (at Bile salt export pump; in test [1]; in test [2]; in test [3]) was above 133 µM throughout.

For `COc1ccc2cc1Oc1cc3c(cc1OC)CC[N+](C)(C)[C@H]3Cc1ccc(cc1)Oc1c(OC)c(OC)cc3c1[C@@H](C2)[N+](C)(C)CC3` [METOCURINE], the IC50 (on Bile salt export pump; in test [1]; in test [2]; in test [3]) was above 133 µM throughout.

For `CC[C@H](C)C(=O)O[C@H]1CCC=C2C=C[C@H](C)[C@H](CC[C@@H]3C[C@@H](O)CC(=O)O3)[C@H]21` [MEVASTATIN], the IC50 on Bile salt export pump is 27 µM; in test [1], above 133 µM; in test [2] it was above 133 µM; in test [3] it was above 133 µM.

In the case of `Cc1cccc(C)c1OCC(C)N` (stereo unspecified) [MEXILETINE], the concentration for half-maximal inhibition (IC50) (at Bile salt export pump; in test [1]; in test [2]; in test [3]) was above 133 µM in each case.

For the compound `Clc1ccc(COC(Cn2ccnc2)c2ccc(Cl)cc2Cl)c(Cl)c1` (stereo unspecified) [MICONAZOLE NITRATE], the IC50 at Bile salt export pump was 114 µM; in test [1] it was above 133 µM; in test [2], above 133 µM; in test [3], above 133 µM.

As to `CCC(=O)O[C@@H]1CC(=O)O[C@H](C)C/C=C/C=C/[C@H](O)[C@H](C)C[C@H](CC=O)[C@H](O[C@@H]2O[C@H](C)[C@@H](O[C@H]3C[C@@](C)(O)[C@@H](OC(=O)CC)[C@H](C)O3)[C@H](N(C)C)[C@H]2O)[C@H]1OC` [MIDECAMYCIN], the IC50 was 14.3 µM on Bile salt export pump, above 133 µM in test [1], above 133 µM in test [2] and above 133 µM in test [3].

Regarding `OCCN1C[C@H](O)[C@@H](O)[C@H](O)[C@H]1CO` [MIGLITOL], the IC50 (at Bile salt export pump; in test [1]; in test [2]; in test [3]) was above 133 µM each time.

Consider `CN(C)c1ccc(O)c2c1C[C@H]1C[C@H]3[C@H](N(C)C)C(O)=C(C(N)=O)C(=O)[C@@]3(O)C(O)=C1C2=O` [MINOCYCLINE HYDROCHLORIDE], for which the IC50 (on Bile salt export pump; in test [1]; in test [2]; in test [3]) was above 133 µM each time.

Consider `NC(=O)c1ncn([C@@H]2O[C@H](CO)[C@@H](O)[C@H]2O)c1O` [MIZORIBINE], for which the IC50 (at Bile salt export pump; in test [1]; in test [2]; in test [3]) was above 133 µM in each case.

For `O=C(NCCN1CCOCC1)c1ccc(Cl)cc1` [MOCLOBEMIDE], the IC50 (at Bile salt export pump; in test [1]; in test [2]; in test [3]) was above 133 µM each time.

`CCOC(=O)[N-]c1cn(N2CCOCC2)n[o+]1` [MOLSIDOMINE]: the IC50 (at Bile salt export pump; in test [1]; in test [2]; in test [3]) was above 133 µM throughout.

As for `COc1c(N2C[C@@H]3CCCN[C@@H]3C2)c(F)cc2c(=O)c(C(=O)O)cn(C3CC3)c12` [MOXIFLOXACIN HYDROCHLORIDE], the IC50 (on Bile salt export pump; in test [1]; in test [2]; in test [3]) was above 133 µM throughout.

In the case of `C/C(=C\C(=O)OCCCCCCCCC(=O)O)C[C@@H]1OC[C@H](C[C@@H]2O[C@H]2[C@@H](C)[C@H](C)O)[C@@H](O)[C@H]1O` [MUPIROCIN], the IC50 (on Bile salt export pump; in test [1]; in test [2]; in test [3]) was above 133 µM in each case.

For `CC(C)(C)NCC(O)COc1cccc2c1CC(O)C(O)C2` (stereo unspecified) [NADOLOL], the 50% inhibitory concentration (IC50) (on Bile salt export pump; in test [1]; in test [2]; in test [3]) was above 133 µM throughout.

In the case of `CCn1cc(C(=O)O)c(=O)c2ccc(C)nc21` [NALIDIXIC ACID], the IC50 is above 133 µM at Bile salt export pump, above 133 µM in test [1], above 133 µM in test [2] and 57.5 µM in test [3].

Take `C=CCN1CC[C@]23c4c5ccc(O)c4O[C@H]2C(=O)CC[C@@]3(O)[C@H]1C5` [NALOXONE]: the IC50 (at Bile salt export pump; in test [1]; in test [2]; in test [3]) was above 133 µM throughout.

`COc1ccc2cc([C@H](C)C(=O)O)ccc2c1` [NAPROXEN]: the IC50 (on Bile salt export pump; in test [1]; in test [2]; in test [3]) was above 133 µM each time.

On to `C[C@@H]1C/C=C/C=C/C=C/C=C/[C@H](O[C@@H]2O[C@H](C)[C@@H](O)[C@H](N)[C@@H]2O)C[C@@H]2O[C@](O)(C[C@@H](O)C[C@H]3O[C@@H]3/C=C/C(=O)O1)C[C@H](O)[C@H]2C(=O)O` [NATAMYCIN], for which the half-inhibitory concentration (IC50) (at Bile salt export pump; in test [1]; in test [2]; in test [3]) was above 133 µM throughout.

For `CC(C)[C@H]1CC[C@H](C(=O)N[C@H](Cc2ccccc2)C(=O)O)CC1` [NATEGLINIDE], the IC50 was above 133 µM on Bile salt export pump, above 133 µM in test [1], 104 µM in test [2] and above 133 µM in test [3].

As to `OC(CNCC(O)C1CCc2cc(F)ccc2O1)C1CCc2cc(F)ccc2O1` (stereo unspecified) [NEBIVOLOL HYDROCHLORIDE], the IC50 (at Bile salt export pump; in test [1]; in test [2]; in test [3]) was above 133 µM in each case.

As to `CN1CCOC(c2ccccc2)c2ccccc2C1` (stereo unspecified) [NEFOPAM], the IC50 (on Bile salt export pump; in test [1]; in test [2]; in test [3]) was above 133 µM each time.

Turning to `COc1nc(N)nc2c1ncn2[C@@H]1O[C@H](CO)[C@@H](O)[C@@H]1O` [NELARABINE], the IC50 (on Bile salt export pump; in test [1]; in test [2]; in test [3]) was above 133 µM in each case.

For the compound `CN(C)C(=O)Oc1cccc([N+](C)(C)C)c1` [NEOSTIGMINE], the IC50 (at Bile salt export pump; in test [1]; in test [2]; in test [3]) was above 133 µM in each case.
